In the test the target is T1, AAK1 (Homo sapiens, UniProt Q2M2I8).
T1 construct: NP_055726.2
T1 sequence (Q2M2I8 1-863 isoform Q2M2I8-2): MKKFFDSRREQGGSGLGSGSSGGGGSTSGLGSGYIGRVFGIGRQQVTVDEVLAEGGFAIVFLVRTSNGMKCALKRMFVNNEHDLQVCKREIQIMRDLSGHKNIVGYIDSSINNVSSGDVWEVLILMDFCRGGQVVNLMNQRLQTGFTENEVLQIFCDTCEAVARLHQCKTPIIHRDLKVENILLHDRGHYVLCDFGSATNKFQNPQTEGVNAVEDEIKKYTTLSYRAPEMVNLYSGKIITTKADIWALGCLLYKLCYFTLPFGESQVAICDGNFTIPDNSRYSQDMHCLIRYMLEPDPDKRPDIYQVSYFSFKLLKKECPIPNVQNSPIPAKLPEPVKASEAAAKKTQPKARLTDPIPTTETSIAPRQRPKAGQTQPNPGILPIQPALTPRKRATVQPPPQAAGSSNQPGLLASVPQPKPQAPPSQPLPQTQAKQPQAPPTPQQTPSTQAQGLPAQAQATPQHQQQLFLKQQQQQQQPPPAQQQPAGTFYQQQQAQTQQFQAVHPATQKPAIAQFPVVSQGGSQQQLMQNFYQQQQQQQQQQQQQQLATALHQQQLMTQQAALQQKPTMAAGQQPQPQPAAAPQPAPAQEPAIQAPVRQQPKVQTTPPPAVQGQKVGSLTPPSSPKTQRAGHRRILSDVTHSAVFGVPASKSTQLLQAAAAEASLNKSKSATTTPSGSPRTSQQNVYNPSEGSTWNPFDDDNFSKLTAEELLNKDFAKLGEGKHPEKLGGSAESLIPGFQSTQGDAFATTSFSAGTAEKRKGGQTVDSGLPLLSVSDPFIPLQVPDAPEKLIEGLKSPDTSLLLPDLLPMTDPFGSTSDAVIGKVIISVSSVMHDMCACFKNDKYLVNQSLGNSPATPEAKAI
As to the kind of experiment: P81 filter plate assay. Format: biochemical. The settings on record: full-length human AAK1, Mu2 substrate, 33P-ATP. The protocol: Compounds were serially diluted into a Labcyte LDV plate (Labcyte, cat#LP-0200) using a Mutiprobe (PerkinElmer) and Biomek FX (Beckman Coulter) so that the highest compound concentration was at 96 μM. Compounds were then pinged (75 nL per well) into a Greiner 384-well reaction plate (Greiner, #781076) using an ECHO 550 Liquid Handler (Labcyte). A total of 12 μl reaction buffer (IMAP buffer containing Tween and DTT, from Molecular Devices) was then added to each well of columns 1 and 13 for the negative controls and 12 μl of 2× AAK1 (0.2 nM full-length human protein, NCBI accession no. NP_055726.2) was added to the remaining wells. Enzyme was then pre-incubated with compound for 10 minutes at RT. Reactions were initiated upon Minitrak (PerkinElmer) addition of 12 μl substrate mix containing 2× Mu2 (0.2 μM, full length human protein), 2× cold ATP (2 μM), and 1.3 μCi of hot ^33P-ATP. […] proceeded for one hour at RT. Meanwhile, Millipore 384-well P81 filter plates (Millipore, catalog #MZPHNOW10) were placed on a plate washer (Zoom ZW, from Titertek) and pre-wet with 50 μl 1% phosphoric acid. Kinase reactions were then stopped upon addition of 24 μl of 2% phosphoric acid to each well and the Minitrak was then used to transfer 40 μl from each well into the pre-wet Millipore 384-well P81 filter plates. Reaction mixtures were incubated for 10 minutes at RT in the P81 plates, followed by washing five times with 100 μl/well of 1% phosphoric acid using the Zoom filter washer. The bottom of each filter plate was sealed followed by addition of 20 μl Microscint 40 to each well, sealing the top of the plates with Flashplate cover, and then waiting one hour until reading on the TopCount (PerkinElmer).
As to `COc1nc(C)ccc1-c1cnn2ccc(N3CCN(C(=O)OC(C)C)CC3)nc12` [isopropyl 4-(3-(2-methoxy-6-methylpyridin-3-yl)pyrazolo[1,5-a]pyrimidin-5-yl)piperazine-1-carboxylate], the IC50 is not above 0.01 µM.
With `COc1ncccc1-c1cnn2ccc(NCCOC(C)(C)C)nc12` [N-(2-(tert-butoxy)ethyl)-3-(2-methoxypyridin-3-yl)pyrazolo[1,5-a]pyrimidin-5-amine], the IC50 is not above 0.01 µM.
To `COc1ncccc1-c1cnn2ccc(N3CCN(c4noc(C(C)C)n4)CC3)nc12` [5-isopropyl-3-(4-(3-(2-methoxypyridin-3-yl)pyrazolo[1,5-a]pyrimidin-5-yl)piperazin-1-yl)-1,2,4-oxadiazole] belongs not above 0.1 µM; to `COc1ncccc1-c1cnn2ccc(N3CCN(C(=O)OC(C)C)C3=O)nc12` [isopropyl 3-(3-(2-methoxypyridin-3-yl)pyrazolo[1,5-a]pyrimidin-5-yl)-2-oxoimidazolidine-1-carboxylate], not above 1 µM.
With `COc1ncccc1-c1cnn2ccc(NCCNC(=O)OC(C)C)nc12` [isopropyl (2-((3-(2-methoxypyridin-3-yl)pyrazolo[1,5-a]pyrimidin-5-yl)amino)ethyl)carbamate], the IC50 is not above 0.1 µM.
For `CCOCCOC(=O)N1CCN(c2ccn3ncc(-c4cccnc4OC)c3n2)CC1` [2-ethoxyethyl 4-(3-(2-methoxypyridin-3-yl)pyrazolo[1,5-a]pyrimidin-5-yl)piperazine-1-carboxylate] the value was not above 0.1 µM; for `CC(C)C[C@H](N)C(=O)N1CCN(c2ccn3ncc(F)c3n2)CC1` [(S)-2-amino-1-(4-(3-fluoropyrazolo[1,5-a]pyrimidin-5-yl)piperazin-1-yl)-4-methylpentan-1-one], not above 1 µM.
Take `COc1ncc(C)cc1-c1cnn2ccc(N(C)CCN(C)C(=O)OC(C)C)nc12` [isopropyl (2-((3-(2-methoxy-5-methylpyridin-3-yl)pyrazolo[1,5-a]pyrimidin-5-yl)(methyl)amino)ethyl)(methyl)carbamate]: the IC50 is not above 0.1 µM.
`Cc1ccc(-c2cnn3ccc(N4CCN(C(=O)OC(C)C)CC4)nc23)cc1F` [isopropyl 4-(3-(3-fluoro-4-methylphenyl)pyrazolo[1,5-a]pyrimidin-5-yl)piperazine-1-carboxylate] gave an IC50 not above 0.1 µM.
For the molecule `CC(C)(C)OCCCNc1ccn2ncc(Br)c2n1` [3-bromo-N-(3-(tert-butoxy)propyl)pyrazolo[1,5-a]pyrimidin-5-amine], the IC50 was not above 1 µM.
To `COc1ncccc1-c1cnn2ccc(N(C)CCN(C)C(=O)OC(C)C)nc12` [isopropyl (2-((3-(2-methoxypyridin-3-yl)pyrazolo[1,5-a]pyrimidin-5-yl)(methyl)amino)ethyl)(methyl)carbamate] belongs not above 0.1 µM.
For `Cc1ccc(-c2cnn3ccc(N4CC[C@H](N(C)C(=O)OC(C)C)C4)nc23)c(=O)n1C` [(S)-isopropyl (1-(3-(1,6-dimethyl-2-oxo-1,2-dihydropyridin-3-yl)pyrazolo[1,5-a]pyrimidin-5-yl)pyrrolidin-3-yl)(methyl)carbamate] the value was not above 1 µM; for `COc1ncc(F)cc1-c1cnn2ccc(N3CCN(CC(F)(F)F)CC3)nc12` [3-(5-fluoro-2-methoxypyridin-3-yl)-5-(4-(2,2,2-trifluoroethyl)piperazin-1-yl)pyrazolo[1,5-a]pyrimidine], not above 1 µM.
Regarding `COc1ncccc1-c1cnn2ccc(N3CCN(C(=O)OCCN(C)C)CC3)nc12` [2-(dimethylamino)ethyl 4-(3-(2-methoxypyridin-3-yl)pyrazolo[1,5-a]pyrimidin-5-yl)piperazine-1-carboxylate], the concentration for half-maximal inhibition (IC50) was not above 0.1 µM.
For `COc1ncccc1-c1cnn2ccc(N3CCN(C(=O)CC(C)C)CC3)nc12` [1-(4-(3-(2-methoxypyridin-3-yl)pyrazolo[1,5-a]pyrimidin-5-yl)piperazin-1-yl)-3-methylbutan-1-one], the 50% inhibitory concentration (IC50) is not above 0.01 µM.
The molecule `CC(C)OC(=O)N1CCN(c2ccn3ncc(-c4ccnnc4)c3n2)CC1` [isopropyl 4-(3-(pyridazin-4-yl)pyrazolo[1,5-a]pyrimidin-5-yl)piperazine-1-carboxylate] gave an IC50 not above 1 µM.
Molecule `COCCCOC(=O)N1CCN(c2ccn3ncc(-c4cccnc4OC)c3n2)CC1` [3-methoxypropyl 4-(3-(2-methoxypyridin-3-yl)pyrazolo[1,5-a]pyrimidin-5-yl)piperazine-1-carboxylate] registered an IC50 not above 0.01 µM.
`COc1cccnc1-c1cnn2ccc(N3CCN(C(=O)OC(C)C)CC3)nc12` [isopropyl 4-(3-(3-methoxypyridin-2-yl)pyrazolo[1,5-a]pyrimidin-5-yl)piperazine-1-carboxylate] came in with a half-inhibitory concentration (IC50) not above 1 µM.
On to `CC(C)OC(=O)N1CCC[C@H]1CN(C)c1ccn2nccc2n1` [(S)-isopropyl 2-((methyl(pyrazolo[1,5-a]pyrimidin-5-yl)amino)methyl)pyrrolidine-1-carboxylate], for which the IC50 is not above 1 µM.
For `CCOc1ncccc1-c1cnn2ccc(N3CCN(C(=O)OC(C)C)CC3)nc12` [isopropyl 4-(3-(2-ethoxypyridin-3-yl)pyrazolo[1,5-a]pyrimidin-5-yl)piperazine-1-carboxylate] the value was not above 0.01 µM.
In turn, `COc1nc(C)ccc1-c1cnn2ccc(N(C)CCN(C)C(=O)OC(C)C)nc12` [isopropyl (2-((3-(2-methoxy-6-methylpyridin-3-yl)pyrazolo[1,5-a]pyrimidin-5-yl)(methyl)amino)ethyl)(methyl)carbamate] displayed a half-maximal inhibitory concentration (IC50) not above 0.1 µM.
To `COc1ncccc1-c1cnn2ccc(N(C)CCCOC(C)(C)C)nc12` [N-(3-(tert-butoxy)propyl)-3-(2-methoxypyridin-3-yl)-N-methylpyrazolo[1,5-a]pyrimidin-5-amine] belongs not above 0.1 µM; to `CC(C)OC(=O)N1CCN(c2ccn3ncc(Cl)c3n2)CC1` [isopropyl 4-(3-chloropyrazolo[1,5-a]pyrimidin-5-yl)piperazine-1-carboxylate], not above 0.1 µM; to `COCCOc1ccccc1-c1cnn2ccc(N3CCN(C(=O)OC(C)C)CC3)nc12` [isopropyl 4-(3-(2-(2-methoxyethoxy)phenyl)pyrazolo[1,5-a]pyrimidin-5-yl)piperazine-1-carboxylate], not above 0.1 µM.
Turning to `CC(C)(C)OC(=O)N1CCC[C@H]1CNc1ccn2ncc(-c3ccc(C(N)=O)cc3)c2n1` [(S)-tert-butyl 2-(((3-(4-carbamoylphenyl)pyrazolo[1,5-a]pyrimidin-5-yl)amino)methyl)pyrrolidine-1-carboxylate], the IC50 was not above 0.01 µM.
Molecule `CCO/C=C/c1cnn2ccc(N3CCN(C(=O)OC(C)C)CC3)nc12` [(E)-isopropyl 4-(3-(2-ethoxyvinyl)pyrazolo[1,5-a]pyrimidin-5-yl)piperazine-1-carboxylate] returned an IC50 not above 0.1 µM.
To `CC(C)OC(=O)N1CCN(c2ccn3ncc(-c4ccc(F)nc4)c3n2)CC1` [isopropyl 4-(3-(6-fluoropyridin-3-yl)pyrazolo[1,5-a]pyrimidin-5-yl)piperazine-1-carboxylate] belongs not above 0.1 µM; to `CC(C)OC(=O)N1CCN(c2ccn3ncc(C(F)(F)F)c3n2)CC1` [isopropyl 4-(3-(trifluoromethyl)pyrazolo[1,5-a]pyrimidin-5-yl)piperazine-1-carboxylate], not above 1 µM.
For `COc1cnccc1-c1cnn2ccc(N3CCN(C(=O)OC(C)C)CC3)nc12` [isopropyl 4-(3-(3-methoxypyridin-4-yl)pyrazolo[1,5-a]pyrimidin-5-yl)piperazine-1-carboxylate] the value was not above 0.01 µM; for `[2H]C1([2H])N(C(=O)OC(C)(C)C)C([2H])([2H])C([2H])([2H])N(c2ccn3ncc(Br)c3n2)C1([2H])[2H]` [tert-butyl 4-(3-bromopyrazolo[1,5-a]pyrimidin-5-yl)-d8-piperazine-1-carboxylate], not above 0.1 µM; for `CCOC(=O)N1CCN(c2ccn3ncc(-c4cc(F)ccc4OC)c3n2)CC1` [ethyl 4-(3-(5-fluoro-2-methoxyphenyl)pyrazolo[1,5-a]pyrimidin-5-yl)piperazine-1-carboxylate], not above 0.01 µM.
The molecule `COCc1ccccc1-c1cnn2ccc(N3CCN(C(=O)OC(C)C)CC3)nc12` [isopropyl 4-(3-(2-(methoxymethyl)phenyl)pyrazolo[1,5-a]pyrimidin-5-yl)piperazine-1-carboxylate] had an IC50 not above 1 µM.
`COc1ccccc1-c1cnn2ccc(NC[C@@H]3CCCN3C(=O)NC(C)(C)C)nc12` [(S)-N-(tert-butyl)-2-(((3-(2-methoxyphenyl)pyrazolo[1,5-a]pyrimidin-5-yl)amino)methyl)pyrrolidine-1-carboxamide]: the 50% inhibitory concentration (IC50) was not above 0.01 µM.
Take `COc1ncccc1-c1cnn2ccc(OCCN(C)C(=O)OC(C)C)nc12` [isopropyl (2-((3-(2-methoxypyridin-3-yl)pyrazolo[1,5-a]pyrimidin-5-yl)oxy)ethyl)(methyl)carbamate]: the IC50 was not above 0.1 µM.
Regarding `CCCC(=O)Nc1ccn2ncc(-c3cccnc3OC)c2n1` [N-(3-(2-methoxypyridin-3-yl)pyrazolo[1,5-a]pyrimidin-5-yl)butyramide], the IC50 was not above 0.1 µM.

What is called IC50 is the concentration that gives 50% inhibition. A low value points to greater potency.
